According to PubChem BioAssay (NCI):
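The compound was tested at five concentrations on cells cultured in 96-well plates, with a 48-hour exposure period. Abbreviation: GI50, concentration required for 50% inhibition of growth. At the TGI there is no net growth.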

Columns and labels:
Assay in all cases: NCI tumour cell line growth inhibition, 48 h
[1] = test system: SNB-75 CNS
[2] = test system: SN12C renal
[3] = test system: SK-MEL-2 melanoma
[4] = test system: TK-10 renal
[5] = test system: SK-MEL-5 melanoma
[6] = test system: HOP-62 NSCLC
[7] = test system: 786-0 renal
[8] = test system: EKVX NSCLC
[9] = test system: OVCAR-8 ovarian
[10] = test system: NCI-H226 lung

Compound	TGI [1] [µM]	TGI [2] [µM]	TGI [3] [µM]	TGI [4] [µM]	TGI [5] [µM]	TGI [6] [µM]	TGI [7] [µM]	TGI [8] [µM]	TGI [9] [µM]	GI50 [1] [µM]	GI50 [2] [µM]	GI50 [3] [µM]	GI50 [4] [µM]	GI50 [10] [µM]	TGI [10] [µM]	GI50 [7] [µM]	GI50 [8] [µM]	GI50 [9] [µM]	GI50 [5] [µM]	GI50 [6] [µM]
COc1cc(OC)c(C(=O)c2cccs2)cc1N	> 100	> 100	> 100	> 100	> 100	> 100	> 100	> 100	> 100	–	–	–	–	–	–	–	–	–	–	–
O=S(=O)([O-])c1ccc(N=Cc2ccccc2[O-])cc1.O=S(=O)([O-])c1ccc(N=Cc2ccccc2[O-])cc1.[Co+2]	> 100	> 100	> 100	> 100	–	–	> 100	> 100	> 100	> 100	> 100	> 100	> 100	> 100	> 100	76.7	69.2	> 100	–	–
CC(C)C12Cc3c(ccc4ccccc34)OC1(C)Oc1ccc3ccccc3c1C2 (stereo not given)	> 100	> 100	> 100	> 100	> 100	–	> 100	> 100	> 100	–	–	–	–	–	> 100	–	–	–	–	–
N/N=C1\C(=O)N(Cc2ccccc2)C(=O)C1C(=O)NCc1ccccc1 (stereo not given)	–	> 100	> 100	> 100	> 100	> 100	> 100	> 100	> 100	–	–	–	–	–	–	–	–	–	–	–
Cc1ccc(-c2nc3ccccc3c(=O)n2NCC2(O)OCC(O)C(O)C2O)cc1 (stereo not given)	> 100	> 100	> 100	–	> 100	–	> 100	> 100	> 100	–	–	–	–	–	–	–	–	–	–	–
O=c1c2ccc(S(=O)(=O)c3ccc4c(=O)n5c6ccccc6nc5c5cccc3c45)c3cccc(c32)c2nc3ccccc3n12	–	> 100	65.6	50.3	> 100	> 100	> 100	> 100	> 100	–	–	–	–	–	> 100	–	–	–	–	–
N.N.N.N.N.NC(=O)[O-].[Co+3].[I-]	> 100	> 100	> 100	> 100	> 100	> 100	> 100	> 100	> 100	18.7	> 100	> 100	> 100	–	–	> 100	> 100	> 100	> 100	> 100
CC(CC(=O)N1C(=O)C(C)(C)[C@@H](O)[C@H]1CC(C)C(Cl)(Cl)Cl)C(Cl)(Cl)Cl (stereo not given in full)	> 100	> 100	–	> 100	> 100	> 100	> 100	> 100	> 100	–	–	–	–	–	> 100	–	–	–	–	–
CCC[CH2][Sn]([CH2]CCC)([O]c1cccc2cccnc12)[O]c1cccc2cccnc12	0.563	0.403	–	1.66	0.409	19.2	0.607	1.22	0.945	0.156	0.177	–	0.492	–	–	0.237	0.34	0.263	0.192	6.31
CCCc1n(Cc2ccc3ccccc3c2)cc[n+]1Cc1ccc2ccccc2c1	3.04	2.53	–	2.7	1.62	2.8	2.91	11.4	–	0.514	1.07	–	1.28	1.31	3.92	1.52	1.71	–	0.485	1.26
CC1CCN(Cc2ccc(NC(=O)c3cc4ccc5cccnc5c4[nH]3)cc2)CC1	27.8	29.4	6.2	23.2	–	33.9	8.46	–	29.5	10.8	7.9	2.45	8.56	23.5	73.4	2.71	–	10.6	–	5.27
COc1ccc(/C=C2\CN(C(=O)C(Cl)Cl)C/C(=C\c3ccc(OC)cc3)C2=O)cc1	–	–	–	–	–	–	3.86	–	> 100	–	–	–	–	2.47	7.65	1.88	–	0.881	–	–
COc1cccc(/C=C/C(=O)c2ccc(SC)cc2)c1OC	30.7	29.2	40.7	49.5	30.3	34.2	28.2	35.6	25.6	14.6	14.7	23.3	22.5	–	–	14.2	18.8	12.7	16.4	19.3
CSc1c(C2=C(c3cn(C)c4ccccc34)C(=O)NC2=O)c2ccccc2n1C	> 12.6	> 25	5.37	> 25	6.88	> 25	> 25	–	> 25	0.728	1.49	0.689	0.606	3.21	> 25	1.19	–	1.56	0.758	1.38
N#CC12CCC1C1CCCCC12N1CCSCC1 (stereo not given)	> 100	> 100	> 100	–	–	> 100	> 100	–	> 100	–	–	–	–	–	–	–	–	–	–	–
CSC(=NC#N)S/C=C/C(=O)c1ccccc1	–	> 100	> 100	> 100	> 100	> 100	> 100	> 100	> 100	–	39.4	70.6	34.5	–	–	33.7	86.4	38.1	45.9	36
NC(=NCc1ccccc1)C(N=Nc1ccccc1)C(=O)NCc1ccccc1 (stereo not given)	27.7	87	–	–	67.3	29.6	30	23.5	15.2	13.2	22.6	–	–	21.3	52.6	12.1	4.49	3.56	23.4	12.6

Compound	TGI [1] [µM]	TGI [2] [µM]	TGI [3] [µM]	TGI [4] [µM]	TGI [5] [µM]	TGI [6] [µM]	TGI [7] [µM]	TGI [8] [µM]	TGI [9] [µM]	GI50 [1] [µM]	GI50 [2] [µM]	GI50 [3] [µM]	GI50 [4] [µM]	GI50 [10] [µM]	TGI [10] [µM]	GI50 [7] [µM]	GI50 [8] [µM]	GI50 [9] [µM]	GI50 [5] [µM]	GI50 [6] [µM]
Cc1c(O)c(N=Nc2nc3ccccc3s2)c2ccccc2c1O	–	> 50	43.2	> 50	21.2	> 50	> 50	> 50	> 50	–	16.7	17.3	> 50	–	–	> 50	13.3	19.7	8.85	> 50
CCCCCOCC(O)CO (stereo not given)	–	> 100	> 100	> 100	> 100	> 100	> 100	> 100	> 100	–	–	–	–	–	> 100	–	–	–	–	–
COc1cc(Oc2c(C)c(Cl)c(OC)c(Cl)c2OC)c2c(c1Cl)COC2=O	> 100	59.7	–	> 100	49.2	–	68.4	> 100	> 100	–	–	–	–	–	> 100	–	–	–	–	–
COc1cc(C2CC(c3cccc(Nc4ccnc5cc(Cl)ccc45)c3)=NN2c2ccc(Cl)cc2)cc(OC)c1OC (stereo not given)	> 100	> 100	35.3	19.1	4.05	22.7	26.2	–	> 100	2.22	7.24	4.65	3.27	8.45	> 100	2.05	–	5.36	1.37	1.39
Cc1c(-c2ccc(C3CCCCC3)cc2)nc2ccc(F)cc2c1C(=O)O	> 100	> 100	> 100	> 100	> 100	> 100	> 100	–	> 100	12.2	0.546	> 45.9	> 76.2	3.08	> 100	0.235	–	0.123	0.0799	–
CC1(C)S[C@@H]2[C@H](N3C(=O)c4ccccc4C3=O)CN2[C@H]1NC(=O)N[C@@H]1N2C[C@@H](N3C(=O)c4ccccc4C3=O)[C@H]2SC1(C)C	> 100	> 100	> 100	> 100	> 100	> 100	> 100	–	> 100	–	–	–	–	–	> 100	–	–	–	–	–
NCCc1ccc(S(=O)(=O)F)cc1	> 100	–	> 100	> 100	> 100	> 100	> 100	> 100	> 100	> 100	–	90.9	59.3	–	–	58.2	43.3	> 100	59.1	57.8
Cc1nc2c(c(N3CCCc4ccccc43)n1)CCC2	–	> 100	> 100	> 100	0.0233	> 100	> 100	> 100	> 100	–	0.0161	0.016	1.62	< 0.01	40.5	< 0.01	< 0.01	0.0112	< 0.01	< 0.01
CCCCCCCCCCCCCCCC1=NCCN1	3.44	4.29	4.87	3.39	3.24	–	3.32	4.39	6.92	1.58	2.07	2.36	1.84	2.12	4.7	1.84	1.86	2.67	1.81	–
CCN1CCC(Nc2ccnc3cc(Cl)ccc23)CC1	74.8	> 100	–	–	30.2	> 100	> 100	> 100	> 100	18.4	91.9	–	–	39.1	> 100	32.4	35.2	34.8	16	21.9
COC(=O)C1=C(O)[C@H](C(=O)OC)C2(O)C(C(=O)OC)[C@H](c3ccc(OC(=O)C(C)c4ccccc4)cc3)C[C@@H]1[C@@H]2C(=O)OC (stereo not given in full)	> 50	> 50	> 50	> 50	23	> 50	> 50	> 50	> 50	16.6	23.7	31	48.6	–	–	38.9	32.5	15	8.53	23.8
O=c1[nH]c2ccccc2c2nc3ccccc3n12	–	> 100	–	> 100	> 100	> 100	> 100	> 100	> 100	–	–	–	–	–	–	–	–	–	–	–
O=C1CSC(=S)N1c1ccco1	–	> 100	> 100	> 100	> 100	> 100	61	> 100	> 100	–	–	–	–	–	> 100	–	–	–	–	–
O=C1C(Cl)=C(Nc2ccc(Nc3ccccc3)c(NC3=C(Cl)C(=O)c4ccccc4C3=O)c2)C(=O)c2ccccc21	6.97	13.7	–	4.5	32	> 100	46.5	96.4	> 100	2.3	2.97	–	2.62	16.7	35.6	15.2	11.4	4.08	13.1	2.71
COc1cc2c(c(OC)c1OC)-c1ccc(O)cc1[C@@H](NC(C)=O)CC2	–	> 100	> 100	> 100	0.195	> 100	> 100	> 100	> 100	–	0.0897	0.0423	0.0406	0.117	> 100	0.0779	0.0577	0.0562	0.0412	0.051
CO[C@@H]1C=C[C@@]23c4cc5c(cc4CN(C[C@@H]2O)[C@H]3C1)OCO5	50.6	87.9	49.2	> 100	–	–	> 100	> 100	> 100	–	–	–	–	–	> 100	–	–	–	–	–
CC(=O)Nc1cc2cc(N)ccc2oc1=O	–	> 100	> 100	> 100	> 100	> 100	> 100	> 100	> 100	–	–	–	–	–	> 100	–	–	–	–	–
